Source: ChEMBL document CHEMBL1137690, “Novel amide derivatives as inhibitors of histone deacetylase: design, synthesis and SAR” (Eur J Med Chem, 2009)

Tests used:
HeLa = assay: Antiproliferative activity against human HeLa cells after 4 hrs by WST-1 assay; assay type: functional, cell-based
[1] = molecular target: Histone deacetylase (Homo sapiens) (UniProt Q13547+O15379+Q9UBN7+Q92769+Q9UQL6+Q8WUI4+Q9BY41+Q96DB2+P56524+Q9UKV0+Q969S8); assay: Inhibition of HDAC from human HeLa cells at 500 nM
Histone deacetylase = assay: Inhibition of HDAC from human HeLa cells; assay type: cell-based
P388 [2] = assay: Antitumor activity in mouse P388 cells xenografted B6D2F1 mouse assessed as increase in life span at 20 mg/kg/day, ip administered 3 to 7 days postxenografting; assay type: functional; details: route intraperitoneal
P388 [3] = assay: Antitumor activity in mouse P388 cells xenografted B6D2F1 mouse assessed as increase in life span at 60 mg/kg/day, ip administered 3 to 7 days postxenografting; assay type: functional; details: route intraperitoneal
P388 [4] = assay: Antitumor activity in mouse P388 cells xenografted B6D2F1 mouse assessed as increase in life span at 100 mg/kg/day, ip administered 3 to 7 days postxenografting; assay type: functional; details: route intraperitoneal
Histone deacetylase 1 = Histone deacetylase 1 (Homo sapiens, UniProt Q13547); assay: Inhibition of human recombinant HDAC1
Histone deacetylase 2 = Histone deacetylase 2 (Homo sapiens, UniProt Q92769); assay: Inhibition of human recombinant HDAC2
Histone deacetylase 3 = Histone deacetylase 3 (Homo sapiens, UniProt O15379); assay: Inhibition of human recombinant HDAC3
Histone deacetylase 4 = Histone deacetylase 4 (Homo sapiens, UniProt P56524); assay: Inhibition of human recombinant HDAC4
[5] = molecular target: T1, Protein deacetylase HDAC6 (Homo sapiens, UniProt Q9UBN7); assay: Inhibition of human recombinant HDAC6
T1 sequence (Q9UBN7 whole entry): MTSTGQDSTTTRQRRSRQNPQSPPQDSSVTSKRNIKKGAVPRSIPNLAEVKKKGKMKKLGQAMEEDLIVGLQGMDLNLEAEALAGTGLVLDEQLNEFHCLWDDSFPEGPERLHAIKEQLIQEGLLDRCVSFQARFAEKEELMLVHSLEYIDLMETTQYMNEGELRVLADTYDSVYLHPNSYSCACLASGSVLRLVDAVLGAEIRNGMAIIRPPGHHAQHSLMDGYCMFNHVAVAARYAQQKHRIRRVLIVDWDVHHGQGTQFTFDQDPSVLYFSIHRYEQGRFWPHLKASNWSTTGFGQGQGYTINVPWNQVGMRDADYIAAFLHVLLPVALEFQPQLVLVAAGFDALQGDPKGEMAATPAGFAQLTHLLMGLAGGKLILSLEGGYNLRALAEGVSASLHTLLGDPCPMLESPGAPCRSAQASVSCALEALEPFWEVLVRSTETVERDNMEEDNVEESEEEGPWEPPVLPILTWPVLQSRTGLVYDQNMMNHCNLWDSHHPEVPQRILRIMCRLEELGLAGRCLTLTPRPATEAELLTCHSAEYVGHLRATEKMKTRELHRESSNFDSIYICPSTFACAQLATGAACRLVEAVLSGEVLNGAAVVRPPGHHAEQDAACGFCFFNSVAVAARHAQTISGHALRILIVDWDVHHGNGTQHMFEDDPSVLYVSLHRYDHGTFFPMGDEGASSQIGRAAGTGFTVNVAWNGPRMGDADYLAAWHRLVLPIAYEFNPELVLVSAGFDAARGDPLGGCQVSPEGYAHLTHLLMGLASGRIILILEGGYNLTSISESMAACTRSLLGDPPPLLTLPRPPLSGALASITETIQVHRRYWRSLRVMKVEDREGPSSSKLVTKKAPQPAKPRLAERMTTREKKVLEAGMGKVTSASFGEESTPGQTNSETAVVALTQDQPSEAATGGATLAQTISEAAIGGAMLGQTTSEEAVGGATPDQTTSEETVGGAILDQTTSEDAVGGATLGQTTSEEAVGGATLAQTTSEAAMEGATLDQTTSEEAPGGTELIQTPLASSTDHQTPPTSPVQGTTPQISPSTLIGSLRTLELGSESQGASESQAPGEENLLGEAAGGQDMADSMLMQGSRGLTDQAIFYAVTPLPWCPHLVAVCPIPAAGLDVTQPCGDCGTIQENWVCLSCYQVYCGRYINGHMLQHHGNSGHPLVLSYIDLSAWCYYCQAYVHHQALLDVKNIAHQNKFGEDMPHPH

Histone deacetylase 8 = molecular target: T2, Histone deacetylase 8 (Homo sapiens, UniProt Q9BY41); assay: Inhibition of human recombinant HDAC8
T2 sequence (Q9BY41 whole entry): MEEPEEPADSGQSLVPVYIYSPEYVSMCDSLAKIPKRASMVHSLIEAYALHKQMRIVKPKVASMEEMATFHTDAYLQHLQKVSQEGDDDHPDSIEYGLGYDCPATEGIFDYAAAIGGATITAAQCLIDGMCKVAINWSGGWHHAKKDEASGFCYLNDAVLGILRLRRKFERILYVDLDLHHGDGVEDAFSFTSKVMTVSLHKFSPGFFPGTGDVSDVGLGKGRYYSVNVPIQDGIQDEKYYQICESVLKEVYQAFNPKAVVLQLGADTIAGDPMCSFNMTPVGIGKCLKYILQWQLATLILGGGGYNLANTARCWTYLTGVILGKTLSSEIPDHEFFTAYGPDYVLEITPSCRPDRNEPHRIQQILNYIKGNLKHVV

Histone deacetylase 9 = Histone deacetylase 9 (Homo sapiens, UniProt Q9UKV0); assay: Inhibition of human recombinant HDAC9
Chain of Histone deacetylase 9 (Q9UKV0 whole entry): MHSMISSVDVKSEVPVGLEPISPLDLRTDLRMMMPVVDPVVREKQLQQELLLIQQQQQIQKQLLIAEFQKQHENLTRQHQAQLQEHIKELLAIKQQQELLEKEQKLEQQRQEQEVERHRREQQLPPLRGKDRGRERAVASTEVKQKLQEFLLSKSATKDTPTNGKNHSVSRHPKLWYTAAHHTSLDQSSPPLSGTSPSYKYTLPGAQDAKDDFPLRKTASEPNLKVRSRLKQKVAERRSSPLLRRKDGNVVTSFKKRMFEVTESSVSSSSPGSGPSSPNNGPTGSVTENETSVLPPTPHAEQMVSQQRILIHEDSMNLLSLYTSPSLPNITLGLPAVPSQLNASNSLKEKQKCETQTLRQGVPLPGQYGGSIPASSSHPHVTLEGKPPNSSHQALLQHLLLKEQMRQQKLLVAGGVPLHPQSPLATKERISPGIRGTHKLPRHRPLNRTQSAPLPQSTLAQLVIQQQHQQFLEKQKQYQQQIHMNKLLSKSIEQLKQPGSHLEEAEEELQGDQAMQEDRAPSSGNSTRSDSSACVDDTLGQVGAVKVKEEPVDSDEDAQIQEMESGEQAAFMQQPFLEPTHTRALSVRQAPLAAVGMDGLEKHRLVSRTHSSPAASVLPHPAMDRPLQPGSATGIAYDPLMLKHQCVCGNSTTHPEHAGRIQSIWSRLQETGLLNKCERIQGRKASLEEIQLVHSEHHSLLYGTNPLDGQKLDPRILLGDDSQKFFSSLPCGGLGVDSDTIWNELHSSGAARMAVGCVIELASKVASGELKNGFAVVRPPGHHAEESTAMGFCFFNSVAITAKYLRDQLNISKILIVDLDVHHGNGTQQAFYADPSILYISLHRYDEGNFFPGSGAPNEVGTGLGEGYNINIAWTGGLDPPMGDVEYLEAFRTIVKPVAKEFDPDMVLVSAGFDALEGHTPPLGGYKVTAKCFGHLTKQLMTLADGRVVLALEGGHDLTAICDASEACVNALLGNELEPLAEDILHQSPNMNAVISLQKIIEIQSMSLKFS

Chain of Histone deacetylase 4 (P56524 whole entry): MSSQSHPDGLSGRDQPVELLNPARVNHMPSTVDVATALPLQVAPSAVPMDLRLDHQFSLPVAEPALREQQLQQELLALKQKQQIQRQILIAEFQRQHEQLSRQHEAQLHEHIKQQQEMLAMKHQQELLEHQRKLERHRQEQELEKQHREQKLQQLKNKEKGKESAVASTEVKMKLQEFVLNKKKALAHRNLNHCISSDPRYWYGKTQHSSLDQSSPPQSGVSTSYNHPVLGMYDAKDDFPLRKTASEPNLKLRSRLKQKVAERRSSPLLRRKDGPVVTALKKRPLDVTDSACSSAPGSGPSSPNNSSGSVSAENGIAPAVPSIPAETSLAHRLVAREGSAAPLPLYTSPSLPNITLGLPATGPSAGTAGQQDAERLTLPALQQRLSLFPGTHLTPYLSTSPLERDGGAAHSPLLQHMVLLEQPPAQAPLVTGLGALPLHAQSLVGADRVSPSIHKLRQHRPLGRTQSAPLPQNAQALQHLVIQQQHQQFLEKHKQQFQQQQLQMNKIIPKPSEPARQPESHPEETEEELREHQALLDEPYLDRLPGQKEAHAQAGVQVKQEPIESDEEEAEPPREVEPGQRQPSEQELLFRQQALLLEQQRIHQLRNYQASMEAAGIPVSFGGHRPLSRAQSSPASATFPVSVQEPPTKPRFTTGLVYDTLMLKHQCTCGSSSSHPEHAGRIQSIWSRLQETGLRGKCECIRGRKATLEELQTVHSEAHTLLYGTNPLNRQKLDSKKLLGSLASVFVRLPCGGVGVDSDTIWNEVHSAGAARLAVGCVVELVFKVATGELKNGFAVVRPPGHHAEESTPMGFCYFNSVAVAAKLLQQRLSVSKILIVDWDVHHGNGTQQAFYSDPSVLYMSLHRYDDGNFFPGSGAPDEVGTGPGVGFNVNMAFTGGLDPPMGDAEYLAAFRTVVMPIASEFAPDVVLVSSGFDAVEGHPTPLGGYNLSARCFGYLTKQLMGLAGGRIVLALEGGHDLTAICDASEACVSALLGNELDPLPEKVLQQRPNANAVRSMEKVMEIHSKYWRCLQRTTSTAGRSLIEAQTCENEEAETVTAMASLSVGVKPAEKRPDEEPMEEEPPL
Chain of Histone deacetylase 3 (O15379 whole entry): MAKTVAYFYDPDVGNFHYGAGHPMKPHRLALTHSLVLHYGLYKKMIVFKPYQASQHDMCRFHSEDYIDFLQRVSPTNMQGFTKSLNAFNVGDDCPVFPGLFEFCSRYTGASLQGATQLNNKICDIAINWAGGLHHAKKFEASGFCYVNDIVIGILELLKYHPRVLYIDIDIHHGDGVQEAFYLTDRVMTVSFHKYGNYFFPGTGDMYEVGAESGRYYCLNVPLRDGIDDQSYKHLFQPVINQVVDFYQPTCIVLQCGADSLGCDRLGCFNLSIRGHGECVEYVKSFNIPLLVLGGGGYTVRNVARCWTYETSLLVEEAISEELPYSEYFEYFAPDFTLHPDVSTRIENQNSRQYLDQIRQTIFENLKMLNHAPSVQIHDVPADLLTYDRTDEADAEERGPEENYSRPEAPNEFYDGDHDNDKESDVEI
Chain of Histone deacetylase 1 (Q13547 whole entry): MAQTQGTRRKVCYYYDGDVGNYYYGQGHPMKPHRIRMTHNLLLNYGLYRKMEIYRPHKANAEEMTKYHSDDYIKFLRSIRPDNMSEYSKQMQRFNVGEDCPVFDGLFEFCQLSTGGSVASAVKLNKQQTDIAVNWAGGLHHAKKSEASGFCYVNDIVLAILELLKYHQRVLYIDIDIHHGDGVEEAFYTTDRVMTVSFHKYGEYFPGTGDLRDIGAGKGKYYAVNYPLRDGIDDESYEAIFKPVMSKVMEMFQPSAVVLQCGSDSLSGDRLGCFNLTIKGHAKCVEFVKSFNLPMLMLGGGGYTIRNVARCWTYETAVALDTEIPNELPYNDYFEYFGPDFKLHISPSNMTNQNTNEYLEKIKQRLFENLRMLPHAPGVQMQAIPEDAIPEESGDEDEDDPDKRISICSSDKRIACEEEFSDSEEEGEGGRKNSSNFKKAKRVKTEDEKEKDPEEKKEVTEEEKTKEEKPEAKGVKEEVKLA
Chain of Histone deacetylase 2 (Q92769 whole entry): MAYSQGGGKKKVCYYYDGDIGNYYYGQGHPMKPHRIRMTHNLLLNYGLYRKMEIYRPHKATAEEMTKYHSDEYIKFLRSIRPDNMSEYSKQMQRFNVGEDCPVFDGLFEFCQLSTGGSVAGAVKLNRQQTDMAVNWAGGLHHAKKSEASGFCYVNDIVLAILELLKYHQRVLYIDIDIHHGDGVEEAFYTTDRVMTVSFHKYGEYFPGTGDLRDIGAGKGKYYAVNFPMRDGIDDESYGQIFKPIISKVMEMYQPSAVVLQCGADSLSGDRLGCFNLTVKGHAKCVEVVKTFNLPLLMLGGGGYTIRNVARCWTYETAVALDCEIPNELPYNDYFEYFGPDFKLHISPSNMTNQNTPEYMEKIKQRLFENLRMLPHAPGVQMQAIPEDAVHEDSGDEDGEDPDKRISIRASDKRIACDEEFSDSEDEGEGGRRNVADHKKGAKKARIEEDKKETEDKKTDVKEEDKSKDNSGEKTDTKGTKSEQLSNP

SMILES	IC50 (HeLa; 48 h)	inhibition [1]	IC50 (Histone deacetylase)	further results
O=C(/C=C/c1ccc(Cl)cc1F)NCCCCCC(=O)NO	6.3 µM			Activity (P388 [2]): 0%; Activity (P388 [3]): 22%
CN(C)c1ccc(C(=O)NCCCCCC(=O)NO)cc1	4.1 µM			
O=C(C=C(c1ccccc1)c1ccccc1)NCCCCCC(=O)NO	8.5 µM		201 nM	
CN(C)c1ccc(CC(=O)NCCCCCC(=O)NO)cc1	52.7 µM	9%		
O=C(CCCCCCC(=O)NCCc1ccccc1)NO	13.3 µM	46%		
O=C(CCCCCNC(=O)c1ccc(-c2ccccc2)cc1)NO	2.6 µM		38 nM	
O=C(CCCCCCCNC(=O)c1ccc2ccccc2c1)NO	3.6 µM		28 nM	
O=C(CCCCCCC(=O)NCc1ccccc1)NO	44.2 µM	39%		
O=C(/C=C/c1ccc2cccnc2c1)NCCCCCC(=O)NO	12.3 µM			Activity (P388 [2]): 0%; Activity (P388 [3]): 111%
O=C(C=C1c2ccccc2CCc2ccccc21)NCCCCCC(=O)NO	9.9 µM		338 nM	
O=C(CCCCCCC(=O)Nc1ccccc1)NO [VORINOSTAT]				Activity (P388 [4]): 14%; Activity (P388 [2]): 11%; Activity (P388 [3]): 0%
O=C(C=C1c2ccccc2-c2ccccc21)NCCCCCC(=O)NO	1.7 µM		5 nM	IC50 (Histone deacetylase 1): 1.6 nM; IC50 (Histone deacetylase 2): 0.8 nM; IC50 (Histone deacetylase 3): 2.8 nM; IC50 (Histone deacetylase 4): 1.2 nM; IC50 [5]: 2 nM; IC50 (Histone deacetylase 8): 779 nM; IC50 (Histone deacetylase 9): 2.3 nM; Activity (P388 [2]): 11%; Activity (P388 [3]): 78%
O=C(CCCCNC(=O)c1ccc2ccccc2c1)NO	24.7 µM	42%		
O=C(CCCCCCNC(=O)c1ccc2ccccc2c1)NO	0.4 µM			
O=C(CCCCCNC(=O)Cc1ccc(-c2ccccc2)cc1)NO	35.9 µM	51%		
O=C(CCCCCNC(=O)CCCCc1ccccc1)NO	70.8 µM	51%		

Further lines, with some results ahead:

IC50 (HeLa; 48 h)	inhibition [1]	IC50 (Histone deacetylase)	SMILES	further results
24 µM	53%		O=C(CCCCCNC(=O)C/C=C/c1ccccc1)NO	
5.5 µM		32 nM	O=C(/C=C/c1ccccc1)NCCCCCC(=O)NO	
		62 nM	O=C(C#Cc1ccccc1)NCCCCCC(=O)NO	IC50 (HeLa; 4 h): 10.6 µM
20.6 µM		625 nM	O=C(CCCCCNC(=O)CC/C=C/c1ccccc1)NO	
9.5 µM		46 nM	O=C(/C=C/c1ccccn1)NCCCCCC(=O)NO.O=C(O)C(=O)O	
74.8 µM	27%		O=C(CCCCCNC(=O)CCc1ccccc1)NO	
18.3 µM		7 nM	O=C(/C=C/c1ccc2ccccc2c1)NCCCCCC(=O)NO	
4.8 µM			CC(/C=C/c1ccccc1)=C\C(=O)NCCCCCC(=O)NO	
114 µM		22850 nM	CC(/C=C/C(=O)NCCCC(=O)NO)=C\c1ccccc1	
28.4 µM		141 nM	O=C(/C=C/c1cccnc1)NCCCCCC(=O)NO.O=C(O)C(=O)O	
20.9 µM		25 nM	O=C(/C=C/c1cccc2cccnc12)NCCCCCC(=O)NO	
52.7 µM	19%		O=C(CCCCCNC(=O)CCCc1ccccc1)NO	
46.4 µM		101 nM	O=C(/C=C/c1ccncc1)NCCCCCC(=O)NO.O=C(O)C(=O)O	
5.1 µM		29 nM	O=C(/C=C/C=C/c1ccccc1)NCCCCCC(=O)NO	
